ChEMBL document CHEMBL1201862, “PubChem BioAssay data set” (2004)
The source made the active and inactive calls.

Tests used:
[1] = target: T1, Tyrosine-protein phosphatase non-receptor type 7 (Homo sapiens, UniProt P35236); type: functional
T1 sequence (P35236 whole entry): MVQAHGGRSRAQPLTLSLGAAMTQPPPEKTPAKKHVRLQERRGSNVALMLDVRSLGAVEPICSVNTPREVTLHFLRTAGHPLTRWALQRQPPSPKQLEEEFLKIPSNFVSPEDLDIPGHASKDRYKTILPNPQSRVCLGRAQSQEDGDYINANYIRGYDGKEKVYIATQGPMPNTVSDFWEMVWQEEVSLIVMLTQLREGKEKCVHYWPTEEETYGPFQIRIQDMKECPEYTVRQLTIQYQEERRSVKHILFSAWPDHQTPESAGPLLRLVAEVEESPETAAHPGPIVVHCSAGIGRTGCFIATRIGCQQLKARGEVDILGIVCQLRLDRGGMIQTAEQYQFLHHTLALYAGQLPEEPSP

[2] = target: T2, Tyrosine-protein phosphatase non-receptor type 22 (Homo sapiens, UniProt Q9Y2R2); type: functional
T2 sequence (Q9Y2R2 whole entry): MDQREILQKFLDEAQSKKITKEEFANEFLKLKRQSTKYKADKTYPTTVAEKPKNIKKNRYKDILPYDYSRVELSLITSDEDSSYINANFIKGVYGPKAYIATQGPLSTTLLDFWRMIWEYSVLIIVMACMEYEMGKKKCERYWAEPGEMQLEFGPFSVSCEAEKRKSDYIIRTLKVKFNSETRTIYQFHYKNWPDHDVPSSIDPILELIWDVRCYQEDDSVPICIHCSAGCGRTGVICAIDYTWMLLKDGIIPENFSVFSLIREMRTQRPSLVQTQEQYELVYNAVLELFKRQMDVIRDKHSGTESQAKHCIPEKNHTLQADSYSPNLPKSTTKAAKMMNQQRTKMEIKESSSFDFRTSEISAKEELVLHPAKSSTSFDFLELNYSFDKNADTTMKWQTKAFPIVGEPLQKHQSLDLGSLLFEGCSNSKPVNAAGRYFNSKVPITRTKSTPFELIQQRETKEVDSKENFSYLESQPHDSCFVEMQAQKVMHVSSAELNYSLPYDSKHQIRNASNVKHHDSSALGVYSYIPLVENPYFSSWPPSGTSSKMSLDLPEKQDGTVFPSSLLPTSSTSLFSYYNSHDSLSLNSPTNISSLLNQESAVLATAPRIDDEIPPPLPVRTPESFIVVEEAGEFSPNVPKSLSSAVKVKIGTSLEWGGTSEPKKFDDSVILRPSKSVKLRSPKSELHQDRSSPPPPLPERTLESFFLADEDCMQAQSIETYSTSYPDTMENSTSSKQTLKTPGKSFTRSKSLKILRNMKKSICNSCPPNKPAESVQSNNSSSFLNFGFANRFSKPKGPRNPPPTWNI

[3] = target: T2, Tyrosine-protein phosphatase non-receptor type 22; type: functional; remark: listed apart in the source
[4] = target: T3, Alkaline phosphatase, tissue-nonspecific isozyme (Homo sapiens, UniProt P05186); experiment: TNAP enzyme activators, dose response, selectivity assay for human IAP activator project, biochemical, TNAP isozyme, human IAP uHTS hits (AID 488886); type: functional;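 also: potency of compounds raising TNAP activity as a selectivity check on IAP activators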
T3 sequence (P05186 whole entry): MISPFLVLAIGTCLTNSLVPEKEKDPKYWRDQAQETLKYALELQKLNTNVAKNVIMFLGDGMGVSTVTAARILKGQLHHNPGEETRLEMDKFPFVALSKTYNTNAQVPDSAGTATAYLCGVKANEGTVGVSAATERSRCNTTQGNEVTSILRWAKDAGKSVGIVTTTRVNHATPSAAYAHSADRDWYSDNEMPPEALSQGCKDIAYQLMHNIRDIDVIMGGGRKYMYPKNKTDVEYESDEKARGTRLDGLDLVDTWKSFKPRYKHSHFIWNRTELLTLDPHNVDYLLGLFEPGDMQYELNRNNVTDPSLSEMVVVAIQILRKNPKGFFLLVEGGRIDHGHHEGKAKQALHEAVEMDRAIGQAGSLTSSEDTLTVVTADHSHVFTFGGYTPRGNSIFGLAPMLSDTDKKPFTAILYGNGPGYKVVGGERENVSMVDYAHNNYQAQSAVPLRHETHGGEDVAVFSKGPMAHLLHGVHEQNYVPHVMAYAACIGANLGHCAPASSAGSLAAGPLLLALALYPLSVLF

[5] = target: T4, Intestinal-type alkaline phosphatase (Homo sapiens, UniProt P09923); experiment: human IAP activators, dose response, biochemical, luminescent, uHTS hits, set 2 (AID 488817); type: functional;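 also: potency of activators that raise enzyme activity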
[6] = target: T4, Intestinal-type alkaline phosphatase; experiment: human intestinal alkaline phosphatase activators, dose response, biochemical, luminescence, uHTS hits (AID 463120); type: functional
[7] = target: Intestinal-type alkaline phosphatase (Mus musculus, UniProt P24822); experiment: PubChem AID 488875; type: functional
[8] = inhibitors of firefly luciferase expression or activity, dose response, H4 neuroglioma cells, luminescence (AID 1990); type: functional, cell-based
[9] = Luminescence Cell-Based Dose Response HTS to Identify Inhibitors of 5'UTR Stem-Loop Driven Prion Protein mRNA Translation in H4 Neuroglioblastoma Cells. [Related pubchem assays: 1827 (Project Summary), 1813 (Primary HTS)]; type: functional
[10] = target: Glycogen synthase kinase-3 beta (Homo sapiens, UniProt P49841); experiment: Inhibition of Human GSK-3 beta Activity Measured in Biochemical System Using Microfluidics - 2063-05_Inhibitor_Dose_DryPowder_Activity. [Related pubchem assays (depositor defined):AID2709]
[11] = inhibitors of SNCA 5'UTR-driven reporter translation, confirmation, H4 neuroglioma cells, luminescence (AID 1988); type: functional, cell-based
[12] = target: Glycogen synthase kinase-3 alpha (Homo sapiens, UniProt P49840); experiment: Inhibition of Human GSK-3 alpha Activity Measured in Biochemical System Using Microfluidics - 2063-06_Inhibitor_Dose_DryPowder_Activity. [Related pubchem assays (depositor defined):AID2709]
[13] = target: Beta-galactosidase (Escherichia coli, UniProt Q8VNN2); experiment: PubChem AID 485352; type: functional
[14] = target: Type-1 angiotensin II receptor (Homo sapiens, UniProt P30556); experiment: AT1 receptor antagonists, dose response, selectivity assay for APJ receptor antagonist project, cell-based, uHTS hits (AID 463214); type: functional;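 also: antagonist potency against angiotensin II stimulated AT1 response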
[15] = target: Dual specificity tyrosine-phosphorylation-regulated kinase 1A (Rattus norvegicus, UniProt Q63470); type: biochemical, Homo sapiens
[16] = target: T5, Cytochrome P450 1A2 (Homo sapiens, UniProt P05177);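 also: PubChem cytochrome P450 panel assay, CYP1A2 panel member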
T5 sequence (P05177 whole entry): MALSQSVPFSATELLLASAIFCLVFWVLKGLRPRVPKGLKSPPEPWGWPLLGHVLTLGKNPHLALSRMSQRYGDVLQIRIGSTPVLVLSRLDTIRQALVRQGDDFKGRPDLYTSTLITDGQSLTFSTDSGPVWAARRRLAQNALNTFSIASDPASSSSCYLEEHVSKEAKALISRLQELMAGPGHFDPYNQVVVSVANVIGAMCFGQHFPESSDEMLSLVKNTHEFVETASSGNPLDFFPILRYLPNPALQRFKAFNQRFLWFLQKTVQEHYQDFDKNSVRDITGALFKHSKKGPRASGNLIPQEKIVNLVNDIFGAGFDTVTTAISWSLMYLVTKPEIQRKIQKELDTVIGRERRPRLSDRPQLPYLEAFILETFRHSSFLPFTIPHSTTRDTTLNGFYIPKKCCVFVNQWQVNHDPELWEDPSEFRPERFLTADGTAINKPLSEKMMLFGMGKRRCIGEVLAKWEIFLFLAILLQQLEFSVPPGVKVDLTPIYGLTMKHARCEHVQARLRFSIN

[17] = target: Cytochrome P450 2D6 (Homo sapiens, UniProt P10635);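 also: CYP2D6 member of a cytochrome P450 panel assay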
[18] = system: HEK293; experiment: cells; details: Homo sapiens
[19] = target: T6, Histone-lysine N-methyltransferase NSD2 (Homo sapiens, UniProt O96028); type: biochemical
T6 sequence (O96028 whole entry): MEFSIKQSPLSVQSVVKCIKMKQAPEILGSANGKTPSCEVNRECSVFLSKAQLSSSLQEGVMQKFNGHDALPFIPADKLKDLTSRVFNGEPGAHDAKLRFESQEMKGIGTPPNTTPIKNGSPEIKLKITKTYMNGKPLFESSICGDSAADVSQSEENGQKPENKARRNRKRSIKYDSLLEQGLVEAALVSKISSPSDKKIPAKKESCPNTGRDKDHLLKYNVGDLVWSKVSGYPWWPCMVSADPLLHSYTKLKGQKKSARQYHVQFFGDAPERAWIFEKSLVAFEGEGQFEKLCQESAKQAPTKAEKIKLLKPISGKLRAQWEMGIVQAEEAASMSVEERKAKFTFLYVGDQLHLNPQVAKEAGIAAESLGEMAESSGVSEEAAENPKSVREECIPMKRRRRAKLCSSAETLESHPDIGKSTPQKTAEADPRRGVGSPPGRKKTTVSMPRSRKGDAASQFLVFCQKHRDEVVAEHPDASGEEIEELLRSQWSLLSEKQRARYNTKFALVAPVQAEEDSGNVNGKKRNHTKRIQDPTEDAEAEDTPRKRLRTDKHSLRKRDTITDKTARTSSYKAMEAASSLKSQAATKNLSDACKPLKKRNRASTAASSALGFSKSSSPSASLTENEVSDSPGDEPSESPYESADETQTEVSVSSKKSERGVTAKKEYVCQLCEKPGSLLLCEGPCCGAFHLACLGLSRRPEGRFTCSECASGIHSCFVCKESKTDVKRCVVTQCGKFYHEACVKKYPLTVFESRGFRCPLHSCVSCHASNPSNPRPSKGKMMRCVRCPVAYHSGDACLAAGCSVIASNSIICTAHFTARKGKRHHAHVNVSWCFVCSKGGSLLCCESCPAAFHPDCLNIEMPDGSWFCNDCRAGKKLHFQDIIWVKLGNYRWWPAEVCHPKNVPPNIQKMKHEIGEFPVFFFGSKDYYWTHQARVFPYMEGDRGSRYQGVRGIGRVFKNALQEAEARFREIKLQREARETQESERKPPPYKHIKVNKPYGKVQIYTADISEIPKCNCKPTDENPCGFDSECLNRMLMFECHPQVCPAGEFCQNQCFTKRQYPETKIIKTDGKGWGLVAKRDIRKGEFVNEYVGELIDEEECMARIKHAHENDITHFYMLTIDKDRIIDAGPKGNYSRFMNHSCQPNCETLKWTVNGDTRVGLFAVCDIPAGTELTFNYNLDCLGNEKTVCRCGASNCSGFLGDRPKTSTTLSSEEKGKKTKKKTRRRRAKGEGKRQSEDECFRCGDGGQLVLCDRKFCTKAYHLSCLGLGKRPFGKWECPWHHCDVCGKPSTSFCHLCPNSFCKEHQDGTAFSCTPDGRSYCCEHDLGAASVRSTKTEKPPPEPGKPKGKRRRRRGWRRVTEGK

[20] = system: HEK293; experiment: cells; details: Homo sapiens; remark: listed apart in the source
[21] = insulin promoter down-regulators in MIN6 cells, imaging, high-content screening, mouse beta cells (AID 1628); type: functional
[22] = cytotoxicity in MIN6 insulinoma cells, dose response, cytotoxicity control, cell-based, mouse insulinoma (AID 2122); type: functional;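 also: confirmatory high-throughput counterscreen run to flag cytotoxic compounds; mouse MIN-6 beta cells carrying an insulin promoter eGFP reporter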

T4 sequence (P09923 whole entry): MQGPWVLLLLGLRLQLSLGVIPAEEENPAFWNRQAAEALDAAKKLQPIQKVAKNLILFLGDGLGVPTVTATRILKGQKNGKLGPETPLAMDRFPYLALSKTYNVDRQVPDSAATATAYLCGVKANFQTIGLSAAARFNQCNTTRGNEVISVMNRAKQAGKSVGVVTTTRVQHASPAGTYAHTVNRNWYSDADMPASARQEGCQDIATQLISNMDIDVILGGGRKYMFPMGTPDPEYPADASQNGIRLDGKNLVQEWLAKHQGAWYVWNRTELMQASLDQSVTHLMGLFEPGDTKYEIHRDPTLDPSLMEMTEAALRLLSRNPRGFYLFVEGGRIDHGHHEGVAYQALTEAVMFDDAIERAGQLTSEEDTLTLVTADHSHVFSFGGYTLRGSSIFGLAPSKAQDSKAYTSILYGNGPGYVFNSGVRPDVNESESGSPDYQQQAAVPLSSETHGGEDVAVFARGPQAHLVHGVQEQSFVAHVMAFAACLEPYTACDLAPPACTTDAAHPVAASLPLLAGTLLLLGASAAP
Chain of Intestinal-type alkaline phosphatase (Mus musculus, UniProt P24822) (P24822 whole entry): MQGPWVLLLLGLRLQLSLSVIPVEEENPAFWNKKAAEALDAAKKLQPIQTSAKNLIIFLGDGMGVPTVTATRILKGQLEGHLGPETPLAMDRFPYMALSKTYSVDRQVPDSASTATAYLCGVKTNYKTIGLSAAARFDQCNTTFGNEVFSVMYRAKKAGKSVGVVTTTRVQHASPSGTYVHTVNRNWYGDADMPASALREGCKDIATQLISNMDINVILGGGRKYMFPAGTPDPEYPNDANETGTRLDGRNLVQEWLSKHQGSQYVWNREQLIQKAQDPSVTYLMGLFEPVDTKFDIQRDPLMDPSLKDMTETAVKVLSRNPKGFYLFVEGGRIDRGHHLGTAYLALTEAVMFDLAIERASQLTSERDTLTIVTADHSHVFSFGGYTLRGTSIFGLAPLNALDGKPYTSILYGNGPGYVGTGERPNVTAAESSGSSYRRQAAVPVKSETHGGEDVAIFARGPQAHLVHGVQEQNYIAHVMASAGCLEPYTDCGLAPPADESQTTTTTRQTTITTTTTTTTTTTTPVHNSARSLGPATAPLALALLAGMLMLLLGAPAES
Chain of Beta-galactosidase (Q8VNN2 whole entry): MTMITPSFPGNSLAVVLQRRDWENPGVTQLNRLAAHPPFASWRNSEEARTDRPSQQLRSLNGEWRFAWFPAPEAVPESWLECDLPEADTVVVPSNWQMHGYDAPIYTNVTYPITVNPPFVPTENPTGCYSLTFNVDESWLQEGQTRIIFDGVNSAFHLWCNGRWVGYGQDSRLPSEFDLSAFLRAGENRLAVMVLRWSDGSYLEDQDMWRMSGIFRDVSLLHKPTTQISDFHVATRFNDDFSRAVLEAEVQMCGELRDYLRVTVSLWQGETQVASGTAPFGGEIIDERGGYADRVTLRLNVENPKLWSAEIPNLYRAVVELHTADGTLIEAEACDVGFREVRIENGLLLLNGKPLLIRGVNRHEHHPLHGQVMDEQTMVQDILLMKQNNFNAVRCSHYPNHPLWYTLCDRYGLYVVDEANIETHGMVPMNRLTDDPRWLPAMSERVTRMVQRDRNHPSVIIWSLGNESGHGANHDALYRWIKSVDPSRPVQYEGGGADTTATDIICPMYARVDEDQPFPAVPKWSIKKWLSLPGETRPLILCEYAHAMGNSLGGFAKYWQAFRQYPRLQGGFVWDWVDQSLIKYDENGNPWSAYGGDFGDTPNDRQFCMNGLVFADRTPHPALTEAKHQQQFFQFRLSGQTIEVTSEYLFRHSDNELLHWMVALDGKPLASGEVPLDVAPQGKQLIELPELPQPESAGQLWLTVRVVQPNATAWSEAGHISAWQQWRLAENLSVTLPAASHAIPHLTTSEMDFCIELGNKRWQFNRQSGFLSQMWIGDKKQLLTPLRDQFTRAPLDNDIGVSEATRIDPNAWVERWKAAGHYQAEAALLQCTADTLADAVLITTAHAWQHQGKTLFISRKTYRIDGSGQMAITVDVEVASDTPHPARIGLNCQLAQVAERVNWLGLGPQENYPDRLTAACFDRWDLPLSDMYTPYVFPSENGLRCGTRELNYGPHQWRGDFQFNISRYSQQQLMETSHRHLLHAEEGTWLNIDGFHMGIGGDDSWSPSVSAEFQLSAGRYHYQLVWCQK
Chain of Glycogen synthase kinase-3 beta (P49841 whole entry): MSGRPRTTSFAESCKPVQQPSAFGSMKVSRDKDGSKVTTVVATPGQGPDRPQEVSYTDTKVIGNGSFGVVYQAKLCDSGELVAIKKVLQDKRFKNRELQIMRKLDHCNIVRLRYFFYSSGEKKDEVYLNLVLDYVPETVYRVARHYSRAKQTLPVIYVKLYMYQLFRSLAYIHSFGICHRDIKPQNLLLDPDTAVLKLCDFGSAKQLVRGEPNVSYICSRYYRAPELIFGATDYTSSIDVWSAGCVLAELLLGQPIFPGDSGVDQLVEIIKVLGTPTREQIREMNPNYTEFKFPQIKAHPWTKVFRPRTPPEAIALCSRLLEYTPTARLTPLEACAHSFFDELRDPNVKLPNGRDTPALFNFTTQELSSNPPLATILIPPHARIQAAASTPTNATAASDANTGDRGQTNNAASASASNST
Chain of Type-1 angiotensin II receptor (P30556 whole entry): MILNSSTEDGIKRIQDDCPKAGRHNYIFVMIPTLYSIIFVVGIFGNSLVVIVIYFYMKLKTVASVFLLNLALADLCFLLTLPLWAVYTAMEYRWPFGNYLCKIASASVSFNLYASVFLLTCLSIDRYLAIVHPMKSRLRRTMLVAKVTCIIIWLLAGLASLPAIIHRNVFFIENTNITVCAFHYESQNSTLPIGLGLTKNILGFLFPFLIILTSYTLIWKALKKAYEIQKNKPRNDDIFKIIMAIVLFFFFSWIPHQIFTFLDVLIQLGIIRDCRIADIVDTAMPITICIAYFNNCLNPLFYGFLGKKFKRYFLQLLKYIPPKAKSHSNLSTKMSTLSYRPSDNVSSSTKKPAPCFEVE
Chain of Glycogen synthase kinase-3 alpha (P49840 whole entry): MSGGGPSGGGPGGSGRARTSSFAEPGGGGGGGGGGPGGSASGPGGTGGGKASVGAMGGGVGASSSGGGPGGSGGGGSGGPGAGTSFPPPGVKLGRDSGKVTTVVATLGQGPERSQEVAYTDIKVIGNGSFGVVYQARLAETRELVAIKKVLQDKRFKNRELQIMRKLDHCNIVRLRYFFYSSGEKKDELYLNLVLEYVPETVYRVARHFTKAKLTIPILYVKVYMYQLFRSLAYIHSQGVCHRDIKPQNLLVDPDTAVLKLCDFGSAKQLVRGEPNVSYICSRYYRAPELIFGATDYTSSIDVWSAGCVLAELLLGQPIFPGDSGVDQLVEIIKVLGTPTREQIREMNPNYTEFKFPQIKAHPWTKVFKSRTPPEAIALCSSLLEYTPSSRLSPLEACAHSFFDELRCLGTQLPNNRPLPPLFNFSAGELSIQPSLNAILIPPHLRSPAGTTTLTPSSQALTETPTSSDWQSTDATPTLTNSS
Chain of Cytochrome P450 2D6 (P10635 whole entry): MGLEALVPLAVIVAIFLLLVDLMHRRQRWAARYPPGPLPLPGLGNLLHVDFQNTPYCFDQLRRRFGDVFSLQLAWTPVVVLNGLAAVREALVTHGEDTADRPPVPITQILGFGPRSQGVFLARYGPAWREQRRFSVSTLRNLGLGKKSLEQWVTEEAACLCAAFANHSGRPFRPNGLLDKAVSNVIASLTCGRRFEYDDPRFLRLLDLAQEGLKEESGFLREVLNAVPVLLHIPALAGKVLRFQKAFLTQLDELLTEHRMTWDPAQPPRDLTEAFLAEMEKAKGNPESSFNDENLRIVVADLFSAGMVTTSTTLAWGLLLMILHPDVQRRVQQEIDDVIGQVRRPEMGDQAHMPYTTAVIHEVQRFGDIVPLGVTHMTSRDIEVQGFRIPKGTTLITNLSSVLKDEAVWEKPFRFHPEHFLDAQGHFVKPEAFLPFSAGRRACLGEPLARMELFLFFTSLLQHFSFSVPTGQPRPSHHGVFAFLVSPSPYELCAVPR

N#CC(C(=O)NC1CCCCC1)=C1CCCCC1
IC50 [1]: > 79.4 µM (inactive)
IC50 [2]: > 79.4 µM (inactive)
IC50 [3]: > 79.4 µM (inactive)

CN(CC(=O)Nc1ccccc1F)CC(=O)Nc1ccc(F)c(F)c1F
EC50 [4]: 23.3 µM (active)
EC50 [5]: 23.6 µM (active)
EC50 [6]: 15.8 µM (active)
EC50 [7]: > 100 µM (inactive)

C=CCNc1nc(N)c([N+](=O)[O-])c(Nc2ccccc2OC)n1
EC50 [8]: 11.4 µM (active)
EC50 [9]: 11.7 µM (active)
AC50 [10]: 0.0544 µM (active)
EC50 [11]: 14.2 µM (active)
AC50 [12]: 0.388 µM (active)

O=c1c2cc(Br)ccc2[nH]c(=S)n1Cc1ccccn1
EC50 [13]: > 40 µM (inactive)
IC50 [14]: 29.7 µM (not active)

OC[C@H]1O[C@@H](n2cnc3cc(Cl)c(Cl)cc32)[C@H](O)[C@@H]1O [DICHLORORIBOBENZIMIDAZOLE]
AC50 [15]: 3.76 µM (active)

Cc1nc(Nc2nc3c(c(=O)[nH]2)CCC3)nc2ccccc12
EC50 [4]: 26.1 µM (active)
EC50 [5]: 17.6 µM (active)
EC50 [6]: 13.1 µM (active)
EC50 [7]: > 100 µM (inactive)

c1ccc2c(CSc3nnc(-c4ccncc4)o3)cccc2c1
AC50 [10]: 0.143 µM (active)
AC50 [12]: 2.93 µM (active)
AC50 [16]: 3.16 µM (inconclusive)
AC50 [17]: 0.501 µM (inconclusive)

NC1(C(=O)O)CSSC1
EC50 [18]: > 59.8 µM (inactive)
AC50 [19]: 14.5 µM (active)
EC50 [20]: > 59.8 µM (inactive)

Cc1[nH]n(C(N)=S)c(=O)c1/N=N/c1ccc([N+](=O)[O-])cc1Cl
EC50 [13]: > 40 µM (inactive)
IC50 [14]: > 40 µM (not active)

CC12CCC(=O)N1c1ccccc1C(=O)N2c1ccccc1 (stereo not given)
IC50 [1]: > 79.4 µM (inactive)
IC50 [2]: > 79.4 µM (inactive)
IC50 [3]: > 79.4 µM (inactive)

COc1ccc(N2C(=O)CC(N(CCc3ccc(OC)c(OC)c3)C(S)=Nc3ccccc3)C2=O)cc1 (stereo not given)
EC50 [18]: > 59.6 µM (inactive)
EC50 [20]: > 59.6 µM (inactive)

COc1ccc(NCc2nc3ccccc3n2CCOc2ccc(C)cc2)cc1
IC50 [21]: 2 µM (active)
IC50 [22]: 4.54 µM (active)
